Consider 21 compounds from ChEMBL document CHEMBL1909046, “DrugMatrix in vitro pharmacology data”.

The target of experiment [1] is Sodium-dependent dopamine transporter (Homo sapiens, UniProt Q01959). As to the kind of experiment: DRUGMATRIX: Dopamine Transporter radioligand binding (ligand: [125I] RTI-55). The class given is cell membranes, CHO-K1, Membrane. The settings on record: Not Active = under 50% inhibition at 10 µM; for Ki: read-out: Ki.
The target of the next experiment is Acetylcholinesterase (Homo sapiens, UniProt P22303). As to the kind of experiment: DRUGMATRIX: Acetylcholinesterase enzyme inhibition (substrate: acetylthiocholine). It is filed as cell-based, HEK293. The settings on record: hek293; Not Active = under 50% inhibition at 10 µM.
Experiment [2] deals with T1, Neuropeptide Y receptor type 2 (Homo sapiens, UniProt P49146).
T1 sequence (P49146 whole entry): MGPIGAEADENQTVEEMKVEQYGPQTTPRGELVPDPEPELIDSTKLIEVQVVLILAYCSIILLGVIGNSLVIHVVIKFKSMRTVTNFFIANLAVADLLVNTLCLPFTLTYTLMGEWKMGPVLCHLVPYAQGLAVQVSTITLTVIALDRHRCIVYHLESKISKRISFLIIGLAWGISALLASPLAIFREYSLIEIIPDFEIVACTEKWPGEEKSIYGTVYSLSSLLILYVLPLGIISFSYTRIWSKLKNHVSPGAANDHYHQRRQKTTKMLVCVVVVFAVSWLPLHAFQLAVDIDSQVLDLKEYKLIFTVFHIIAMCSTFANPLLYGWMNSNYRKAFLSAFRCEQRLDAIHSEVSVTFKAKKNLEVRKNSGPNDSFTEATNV
It is filed as cell membranes, Membrane. Conditions: kan-ts.

A short description of experiment [3]: DRUGMATRIX: Calcium Channel Type L, Phenylalkylamine radioligand binding (ligand: [3H] (-)-Desmethoxyverapamil (D-888)). The class given is cell membranes, Rattus norvegicus, Wistar, Brain, Membrane. Conditions: Not Active = under 50% inhibition at 10 µM.
Experiment [4] deals with T2, Alpha-2C adrenergic receptor (Homo sapiens, UniProt P18825).
T2 sequence (P18825 whole entry): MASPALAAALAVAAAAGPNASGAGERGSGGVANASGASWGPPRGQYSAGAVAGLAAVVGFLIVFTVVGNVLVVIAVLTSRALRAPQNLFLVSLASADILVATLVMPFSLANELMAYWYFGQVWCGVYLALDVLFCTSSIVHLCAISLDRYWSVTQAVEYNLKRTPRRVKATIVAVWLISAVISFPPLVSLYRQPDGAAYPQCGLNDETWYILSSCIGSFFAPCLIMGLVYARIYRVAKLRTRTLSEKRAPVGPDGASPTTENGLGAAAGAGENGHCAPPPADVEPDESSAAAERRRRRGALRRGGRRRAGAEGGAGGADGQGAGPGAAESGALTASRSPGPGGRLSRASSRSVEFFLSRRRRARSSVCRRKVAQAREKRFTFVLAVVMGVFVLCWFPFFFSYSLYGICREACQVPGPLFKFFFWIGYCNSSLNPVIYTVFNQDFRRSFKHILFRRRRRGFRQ
Briefly: DRUGMATRIX: Adrenergic Alpha-2C radioligand binding (ligand: [3H] MK-912). The class given is cell membranes, Sf9, Membrane.

Sequence of Sodium-dependent dopamine transporter (Q01959 whole entry): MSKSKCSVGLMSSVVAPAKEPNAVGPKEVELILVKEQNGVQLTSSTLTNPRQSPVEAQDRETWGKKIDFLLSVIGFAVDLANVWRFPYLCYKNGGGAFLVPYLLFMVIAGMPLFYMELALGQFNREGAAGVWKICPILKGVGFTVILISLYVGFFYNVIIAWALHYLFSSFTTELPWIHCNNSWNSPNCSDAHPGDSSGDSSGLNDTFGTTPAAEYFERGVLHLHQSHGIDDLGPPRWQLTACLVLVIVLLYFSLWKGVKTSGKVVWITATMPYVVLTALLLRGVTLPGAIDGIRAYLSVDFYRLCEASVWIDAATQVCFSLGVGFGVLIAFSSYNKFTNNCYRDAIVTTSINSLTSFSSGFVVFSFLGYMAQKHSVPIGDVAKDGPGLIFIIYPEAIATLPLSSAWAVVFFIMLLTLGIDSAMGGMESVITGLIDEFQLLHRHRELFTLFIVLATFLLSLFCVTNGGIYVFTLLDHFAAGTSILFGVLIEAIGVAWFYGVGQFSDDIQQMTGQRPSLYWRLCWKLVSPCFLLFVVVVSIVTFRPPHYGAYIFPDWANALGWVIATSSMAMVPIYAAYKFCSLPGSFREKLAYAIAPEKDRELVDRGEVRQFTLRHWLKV
Sequence of Acetylcholinesterase (P22303 whole entry): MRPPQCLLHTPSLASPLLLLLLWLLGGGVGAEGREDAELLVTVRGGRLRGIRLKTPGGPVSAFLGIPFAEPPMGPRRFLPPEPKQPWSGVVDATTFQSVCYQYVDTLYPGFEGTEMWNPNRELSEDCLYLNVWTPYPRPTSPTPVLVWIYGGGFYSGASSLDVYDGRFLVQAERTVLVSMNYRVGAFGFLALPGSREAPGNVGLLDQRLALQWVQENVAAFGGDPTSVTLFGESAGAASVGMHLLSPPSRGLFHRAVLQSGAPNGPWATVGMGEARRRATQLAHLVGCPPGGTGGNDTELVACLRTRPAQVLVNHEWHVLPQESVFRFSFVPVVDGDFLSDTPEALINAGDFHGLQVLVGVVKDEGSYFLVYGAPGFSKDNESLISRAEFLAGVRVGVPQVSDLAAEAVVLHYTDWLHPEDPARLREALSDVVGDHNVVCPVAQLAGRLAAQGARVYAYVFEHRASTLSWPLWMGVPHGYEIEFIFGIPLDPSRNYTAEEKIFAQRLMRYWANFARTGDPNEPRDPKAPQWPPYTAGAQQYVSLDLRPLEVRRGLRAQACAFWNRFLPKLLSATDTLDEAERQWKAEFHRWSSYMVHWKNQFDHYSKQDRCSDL

One may read the IC50 as the concentration at which inhibition is half-maximal. The Ki is the equilibrium dissociation constant of an inhibitor or competing ligand from its target. Turning to `O=C(O)COC(=O)Cc1ccccc1Nc1c(Cl)cccc1Cl` [ACECLOFENAC], the IC50 entry (in experiment [1] (cho-k1); against Acetylcholinesterase; in experiment [2]; in experiment [3]; in experiment [4] (sf9)) was “Not Active” each time. The inhibition constant (Ki) result in experiment [3] is listed as “Not Active”.
Consider `CCN1C[C@]2(COC)[C@H](O)C[C@H](OC)[C@@]34[C@@H]5C[C@@]6(O)[C@H](OC(=O)c7ccccc7)[C@@H]5[C@@](OC(C)=O)([C@@H]([C@H](OC)[C@H]23)[C@@H]14)[C@@H](O)[C@@H]6OC` [ACONITINE], for which the IC50 entry (in experiment [1] (cho-k1); against Acetylcholinesterase; in experiment [2]; in experiment [3]; in experiment [4] (sf9)) was “Not Active” each time. Besides, the Ki entry in experiment [3] is reported as “Not Active”.
For `CC(C)NCC(O)COc1ccc(CC(N)=O)cc1` (stereo not drawn) [ATENOLOL], the 50% inhibitory concentration (IC50) result (in experiment [1] (cho-k1); on Acetylcholinesterase; in experiment [2]; in experiment [3]; in experiment [4] (sf9)) was “Not Active” each time. Besides, the inhibitory constant (Ki) result in experiment [3] was “Not Active”.
As to `O=C(O)c1ccccc1` [BENZOIC ACID], the IC50 entry (in experiment [1] (cho-k1); against Acetylcholinesterase; in experiment [2]; in experiment [3]; in experiment [4] (sf9)) was “Not Active” throughout. In experiment [3], the Ki entry is reported as “Not Active”.
As to `C[C@H]1C[C@H]2[C@@H]3CCC4=CC(=O)C=C[C@]4(C)[C@@]3(F)[C@@H](O)C[C@]2(C)[C@@]1(O)C(=O)CO` [BETAMETHASONE], the concentration for half-maximal inhibition (IC50) entry (in experiment [1] (cho-k1); against Acetylcholinesterase; in experiment [2]; in experiment [3]; in experiment [4] (sf9)) was “Not Active” each time. In addition, the inhibition constant (Ki) entry in experiment [3] is “Not Active”.
With `CC(C)(c1ccc(O)cc1)c1ccc(O)cc1` [BISPHENOL A], the IC50 in experiment [1] (read-out: IC50) is 19 µM; against Acetylcholinesterase, “Not Active”; in experiment [2] it was “Not Active”; in experiment [3], “Not Active”; in experiment [4] (sf9) it was “Not Active”. The Ki in experiment [1] is 15.1 µM; in experiment [3] it was “Not Active”.
Regarding `C[N+](C)(C)CCOC(N)=O.[Cl-]` [CARBACHOL], the IC50 entry (in experiment [1] (cho-k1); on Acetylcholinesterase; in experiment [2]; in experiment [3]; in experiment [4] (sf9)) was “Not Active” each time. Also, the Ki result in experiment [3] is reported as “Not Active”.
In the case of `Cl.NC[C@H]1CC[C@H](C(=O)Oc2ccc(CCC(=O)O)cc2)CC1` [CETRAXATE HYDROCHLORIDE], the IC50 entry (in experiment [1] (cho-k1); on Acetylcholinesterase; in experiment [2]; in experiment [3]; in experiment [4] (sf9)) was “Not Active” each time. Further, the Ki result in experiment [3] is “Not Active”.
Take `CNC[C@H](O)c1ccc(O)c(O)c1` [EPINEPHRINE]: the IC50 result (in experiment [1] (cho-k1); on Acetylcholinesterase; in experiment [2]; in experiment [3]) was “Not Active” in each case. Further, the inhibition constant Ki result in experiment [3] is “Not Active”.
Take `CC[C@H]1OC(=O)[C@H](C)[C@@H](O[C@H]2C[C@@](C)(OC)[C@@H](O)[C@H](C)O2)[C@H](C)[C@@H](O[C@@H]2O[C@H](C)C[C@H](N(C)C)[C@H]2O)[C@](C)(O)C[C@@H](C)C(=O)[C@H](C)[C@@H](O)[C@]1(C)O` [ERYTHROMYCIN]: the IC50 entry (in experiment [1] (cho-k1); against Acetylcholinesterase; in experiment [2]; in experiment [3]; in experiment [4] (sf9)) was “Not Active” in each case. The inhibition constant Ki entry in experiment [3] is on record as “Not Active”.
As for `NS(=O)(=O)c1cc(C(=O)O)c(NCc2ccco2)cc1Cl` [FUROSEMIDE], the IC50 entry (in experiment [1] (cho-k1); at Acetylcholinesterase; in experiment [2]; in experiment [3]; in experiment [4] (sf9)) was “Not Active” throughout. Moreover, the Ki entry in experiment [3] is “Not Active”.
`COc1ccc(Cl)cc1C(=O)NCCc1ccc(S(=O)(=O)NC(=O)NC2CCCCC2)cc1` [GLYBURIDE]: the IC50 result (in experiment [1] (cho-k1); on Acetylcholinesterase; in experiment [2]; in experiment [3]; in experiment [4] (sf9)) was “Not Active” throughout. Besides, the Ki result in experiment [3] is given as “Not Active”.
On to `O=C(O)CO` [GLYCOLIC ACID], for which the IC50 entry (in experiment [1] (cho-k1); against Acetylcholinesterase; in experiment [2]; in experiment [3]; in experiment [4] (sf9)) was “Not Active” each time. Further, the inhibition constant Ki result in experiment [3] is “Not Active”.
With `O=C(NCCN1CCOCC1)c1ccc(Cl)cc1` [MOCLOBEMIDE], the IC50 result (in experiment [1] (cho-k1); against Acetylcholinesterase; in experiment [2]; in experiment [3]; in experiment [4] (sf9)) was “Not Active” throughout. In experiment [3], the inhibitory constant (Ki) entry was “Not Active”.
`C#C[C@]1(O)CC[C@H]2[C@@H]3CCC4=CC(=O)CC[C@@H]4[C@H]3CC[C@@]21C` [NORETHINDRONE]: the half-maximal inhibitory concentration (IC50) result (in experiment [1] (cho-k1); against Acetylcholinesterase; in experiment [2]; in experiment [3]; in experiment [4] (sf9)) was “Not Active” in each case. The Ki entry in experiment [3] was “Not Active”.
Regarding `CCC1(c2ccccc2)C(=O)NC(=O)NC1=O` [PHENOBARBITAL], the half-inhibitory concentration (IC50) entry (in experiment [1] (cho-k1); against Acetylcholinesterase; in experiment [2]; in experiment [3]; in experiment [4] (sf9)) was “Not Active” each time. Further, the Ki entry in experiment [3] is reported as “Not Active”.
For the compound `Oc1ccccc1` [PHENOL], the half-maximal inhibitory concentration (IC50) entry (in experiment [1] (cho-k1); against Acetylcholinesterase; in experiment [2]; in experiment [3]; in experiment [4] (sf9)) was “Not Active” each time. The Ki result in experiment [3] is “Not Active”.
For `c1ccc2c(c1)Nc1ccccc1S2` [PHENOTHIAZINE], the 50% inhibitory concentration (IC50) in experiment [1] (read-out: IC50) is 18.6 µM; against Acetylcholinesterase it was “Not Active”; in experiment [2], “Not Active”; in experiment [3], “Not Active”; in experiment [4] (sf9) it was “Not Active”. Besides, the Ki in experiment [1] is 14.8 µM; in experiment [3], “Not Active”.
For `CCN1CCN(C(=O)N[C@@H](C(=O)N[C@@H]2C(=O)N3[C@@H]2SC(C)(C)[C@@H]3C(=O)O)c2ccccc2)C(=O)C1=O` [PIPERACILLIN], the 50% inhibitory concentration (IC50) result (in experiment [1] (cho-k1); on Acetylcholinesterase; in experiment [2]; in experiment [3]; in experiment [4] (sf9)) was “Not Active” in each case. For the same compound, in experiment [3], the inhibition constant (Ki) entry is reported as “Not Active”.
`COc1cc(NC(C)CCCN)c2ncccc2c1` (stereo not drawn) [PRIMAQUINE]: the IC50 result (in experiment [1] (cho-k1); against Acetylcholinesterase; in experiment [2]; in experiment [3]; in experiment [4] (sf9)) was “Not Active” in each case. For the same compound, the inhibitory constant (Ki) result in experiment [3] is “Not Active”.
As for `CC(CN1c2ccccc2Sc2ccccc21)N(C)C` (stereo not drawn) [PROMETHAZINE], the half-maximal inhibitory concentration (IC50) entry in experiment [1] (cho-k1) was “Not Active”; at Acetylcholinesterase, “Not Active”; in experiment [2] it was “Not Active”; in experiment [3] (read-out: IC50), 0.866 µM; in experiment [4] (read-out: IC50), 2.43 µM. The figures for the inhibitory constant (Ki) in experiment [3] (read-out: Ki) and in experiment [4] (read-out: Ki) were 0.842 µM and 0.353 µM, respectively.
